{
  "source": "patent US20250345469A1",
  "about": "“COMPOSITION COMPRISING A RAPALOG AND A RADIOLABELLED GASTRIN ANALOGUE, IN PARTICULAR FOR USE IN THE TREATMENT AND/OR DIAGNOSIS OF CCKB RECEPTOR POSITIVE CANCER OR TUMORS” (Paul Scherrer Institut, priority 2020, published 2025)",
  "key": {"A431/CCKBR cells [1]": {"tested_on": "A431/CCKBR cells", "assay": "Proliferation assay (CellTiter 96 AQueous, MTS)", "assay_type": "cell-based, human", "conditions": "10 μM kinase inhibitor; FIG. 1C", "quoted_text": "Cells were seeded in 96-well plates before treatment as described above, and cell proliferation was analyzed by a CellTiter 96 AQueous Non-Radioactive Cell Proliferation Assay (Promega) according to the manufacturer's instructions. Absorbance of MTS bio-reduced into a formazan was measured at 570 nm with a reference of 650 nm using a MicroPlate Reader (PerkinElmer). The assay was performed in triplicate."}, "A431/CCKBR cells [2]": {"tested_on": "A431/CCKBR cells", "assay": "In vitro radiolabelled peptide internalization assay", "assay_type": "cell-based, human", "conditions": "for Protein levels as compared to control: A431/CCKBR cell lysates, 20 h treatment, FIG. 2B; for membrane bound activity: treated vs control cells, FIG. 2A", "method": "(§1) 2.5×10^5 cells were seeded on 6-well plates. Eight hours later cells were treated with appropriate inhibitors (as indicated) for 20 h. […] After 1 or 2 h incubation, radioactive medium (together with PBS wash) was collected and the cells were subjected to 2× wash with glycine buffer (pH=2) for 5 min at RT followed by a dissolving step in 1 M NaOH for 15 min at 37° C. […] Protein concentration of NaOH-dissolved cell lysates was measured by spectrophotometry using a NanoPhotometer® UV-Vis P-Class (Implen)."}, "AR42J cells": {"tested_on": "AR42J cells", "assay": "In vitro radiolabelled peptide internalization assay", "assay_type": "cell-based, rat", "conditions": "AR42J cell lysates, FIG. 2B", "method": "as §1"}, "[3]": {"tested_on": "mTORC1-regulated phosphorylation of ribosomal protein S6 at Ser235/236", "assay": "WB analysis of phospho-S6 (mTORC1 activity)", "assay_type": "cell-based, human", "conditions": "A431/CCKBR cells, 20 h treatment, FIG. 2C", "method": "The inhibitor activity of the rapamycin and/or rapalog towards mTORC1 can be determined by measuring the level of phosphorylation of ribosomal protein S6 by Western Blot analysis as described further below.\n(§2) Antibodies against phospho-S6 at S235/S236 (D57.2.2F) and GAPDH (14C10) were obtained from Cell Signaling Technology, whereas anti-CCKBR (ab77077) was from Abcam. Cells were homogenized in lysis buffer (50 mM Tris-HCl pH 7.5, 150 mM NaCl, 1% Triton X, 0.1% SDS supplemented with 1 mM sodium orthovanadate, 1 mM NaF and protease inhibitor cocktail (Roche)). Aliquots of 50 μg protein extracts were separated by SDS-PAGE and transferred to PVDF membranes (Millipore) by electroblotting. Membranes were blocked with 5% skim milk in TBST (0.1% Tween 20) for 1 h, and incubated with 2% BSA in TBST overnight with the primary antibody followed by 2 h incubation with HRP-conjugated secondary antibody. Protein-specific signals were detected by a chemiluminescence reagent (ECL) and signals were acquired by using ImageQuant RT ECL Imager (GE Healthcare)."}, "CCKBR": {"tested_on": "CCKBR", "assay": "WB analysis of CCKBR expression in deglycosylated lysates", "assay_type": "cell-based, human", "conditions": "50 nM or 100 nM RAD001, 20 h, A431/CCKBR cells", "method": "For CCKBR-specific knock-down, duplex siRNAs against CCKBR or control duplex against luciferase (Microsynth) were used at a final concentration of 100 nM in Optimem (Gibco): CCKBRseq1 sense RNA 5′-[…]dTdT-3′(SEQ ID NO:5), CCKBRseq2 sense RNA 5′-[…]dTdT-3′(SEQ ID NO:6) and control sense RNA 5′-[…]dTdT-3′(SEQ ID NO:7). Cells at 60-80% confluence were transfected with siRNAs by using Lipofectamin 3000 according to the user's manual. Total protein lysates were subjected to WB analysis.\nas §2, with “Healthcare). […]” for “Healthcare).”"}, "A431/CCKBR tumors": {"tested_on": "A431/CCKBR tumors", "assay": "Immunochemistry (HE and Ki67 staining) of tumor sections", "assay_type": "in vivo, mouse", "conditions": "five daily doses; for necrosis (percent of necrotic area): PBS-treated tumors 1.4±1.2%; for mitotic index: control 1.08±0.2%; for Ki67 positive cells: control 80±3.1%", "method": "Paraffin sections of formalin-fixed A431/CCKBR tumors were subjected to deparaffinization. Rehydrated slides were pretreated in 10 mM citrate buffer, pH 6.0, at 98° C. for 60 minutes, followed by incubation with 4% fat-free milk in PBS for 90 minutes. For avidin/biotin blocker treatment (Invitrogen) and detection, the ABC method was used according to the manufacturer's instructions. For monoclonal antibody against Ki67 (Thermo Scientific, SP6) signals were recorded using an automated instrument reagent system (Discovery XT, Ventana Medical System Inc.) according to the user manual. Images of hematoxylin-counterstained sections were captured (Nikon, YTHM) and analyzed using ImageAccess Enterprise7 and ImageJ software (Schneider et al. Nat Methods 2012, 9(7), 671-675).\nParaffin tumor sections prepared from A431/CCKBR-tumor bearing nude mice treated with five daily doses of RAD001, metformin and PBS (control) were subjected to immunohistochemistry. RAD001 and PBS group includes 5 tumors, while in metformin group 4 tumors were analyzed."}, "[4]": {"tested_on": "A431/CCKBR-tumor bearing nude mice", "assay": "Animal therapeutic study: tumor growth and survival", "assay_type": "in vivo, mouse", "conditions": "for average tumor size on day 13: control 0.97 cm^3; for Median Survival: control 19.5", "method": "For the animal study, human epidermoid carcinoma A431 cell line, which overexpresses CCKBR, was generated previously and kindly provided by Dr. Luigi Aloj. A431/CCKBR cells were cultured in DMEM, supplemented with 10% FCS, 2 mM glutamine and antibiotics (0.1 mg/mL streptomycin, 100 IU penicillin) at 37° C. and 5% CO2. […] RAD001 (3 mg/kg), or PBS (control) were administered via intraperitoneal injection daily for 5 or 10 days, as indicated. […] The tumor diameters and mice weight were recorded daily. The tumor volume was calculated by using the formula V=(W2×L)/2. The nude mice were sacrificed when the tumor volume exceeded 1.5 cm^3. […] These mice were excluded from the analysis.\nIn this experiment, GraphPad Prism 7.00 for Windows was used for all statistical analysis. One-way ANOVA combined with two-stage linear step-up procedure of Benjamini, Krieger and Yekutieli for multiple comparison test was used for all treated groups. Log-rank (Mantel-Cox) test was performed to compare different survival curves of the treatment groups with the control group. Endpoints were defined as death in the survival curves. Values of P≤0.05 were considered statistically significant."}, "A431/CCKBR xenograft [5]": {"tested_on": "A431/CCKBR xenograft", "assay": "Biodistribution study in A431/CCKBR xenograft mouse model", "conditions": "three daily doses, FIG. 7B", "quoted_text": "(§3) Immunocompromised CD-1 female nude mice (Charles Rivers, Germany) were housed one week before experimentation. Prior to tumor implantation, A431/CCKBR cells were harvested and 5 min cells in 0.1 mL of sterile phosphate-buffered saline (PBS) containing 0.9% NaCl were injected subcutaneously (two tumors per animal) into mice anesthetized by isoflurane/oxygen inhalation. After 5 days, animals were randomly distributed into 3 experimental groups and tumor size was measured non-invasively with a caliper. RAD001 (3 mg/kg), metformin (200 mg/kg) or PBS (control) were administered daily via intraperitoneal injection for 3 or 5 consecutive days, as indicated. […] Post mortem dissected tumors and organs were weighed and their activity was measured in a gamma counter.\n(§4) To investigate the effects of RAD001 and metformin in vivo, A431/CCKBR cells were implanted subcutaneously into immunocompromised nude mice, and 5 days later after tumor formation, mice were subjected to treatment with RAD001, metformin or PBS (control) as described above."}, "A431/CCKBR xenograft [6]": {"tested_on": "A431/CCKBR xenograft", "conditions": "in vivo", "quoted_text": "as §3, §4"}},
  "note": "Like-named read-outs stand apart in the source and are kept apart here.",
  "data": [
    {"molecule": "O=C(O)c1ccc2nc(-c3ccccc3)c(-c3ccccc3)nc2c1", "note": "[BML257]", "values": [
      {"measurement": "changes in cell proliferation", "setting": "A431/CCKBR cells [1]", "value": "did not show significant changes in cell proliferation"}
    ]},
    {"molecule": "CO[C@H]1C[C@@H]2CC[C@@H](C)[C@@](O)(O2)C(=O)C(=O)N2CCCC[C@H]2C(=O)O[C@H]([C@H](C)C[C@@H]2CC[C@@H](OCCO)[C@H](OC)C2)CC(=O)[C@H](C)/C=C(\\C)[C@@H](O)[C@@H](OC)C(=O)[C@H](C)C[C@H](C)/C=C/C=C/C=C/1C", "note": "[RAD001, Everolimus]", "values": [
      {"measurement": "Protein levels as compared to control", "setting": "A431/CCKBR cells [2]", "value": 80, "unit": "%"},
      {"measurement": "membrane bound activity", "setting": "A431/CCKBR cells [2]", "value": "no significant difference in membrane bound activity"},
      {"measurement": "Protein levels as compared to control", "setting": "AR42J cells", "value": 84, "unit": "%"},
      {"measurement": "phosphorylation of ribosomal protein S6 at Ser235/236", "setting": "[3]", "value": "lack of mTORC1-regulated phosphorylation of ribosomal protein S6 at Ser235/236"},
      {"measurement": "increase of the CCKBR expression", "setting": "CCKBR", "value": "approximately 2.2 fold"},
      {"measurement": "necrosis (percent of necrotic area)", "setting": "A431/CCKBR tumors", "value": "10.6±6.4", "unit": "%"},
      {"measurement": "mitotic index", "setting": "A431/CCKBR tumors", "value": "0.75±0.36", "unit": "%"},
      {"measurement": "Ki67 positive cells", "setting": "A431/CCKBR tumors", "value": "61±8.6", "unit": "%"},
      {"measurement": "average tumor size on day 13", "setting": "[4]; 5 doses of RAD001 (3 mg/kg i.p. daily)", "value": 0.31, "unit": "cm^3"},
      {"measurement": "average tumor size on day 13", "setting": "[4]; 10 doses of RAD001 (3 mg/kg i.p. daily)", "value": 0.11, "unit": "cm^3"},
      {"measurement": "Median Survival", "setting": "[4]; RAD001 5x", "value": 27, "unit": "days"},
      {"measurement": "Median Survival", "setting": "[4]; RAD001 10x", "value": 32, "unit": "days"},
      {"measurement": "tumor growth", "setting": "[4]; vs control, FIG. 10B", "value": "significantly inhibited tumor growth"},
      {"measurement": "mouse weight", "setting": "A431/CCKBR xenograft [5]", "value": "without influencing overall mouse weight"},
      {"measurement": "tumor volume", "setting": "A431/CCKBR xenograft [5]", "value": "significantly reduced tumor volumes"}
    ]},
    {"molecule": "CN(C)C(=N)N=C(N)N", "note": "[metformin]", "values": [
      {"measurement": "Protein levels as compared to control", "setting": "A431/CCKBR cells [2]", "value": 79, "unit": "%"},
      {"measurement": "membrane bound activity", "setting": "A431/CCKBR cells [2]", "value": "no significant difference in membrane bound activity"},
      {"measurement": "phosphorylation of ribosomal protein S6 at Ser235/236", "setting": "[3]", "value": "lack of mTORC1-regulated phosphorylation of ribosomal protein S6 at Ser235/236"},
      {"measurement": "necrosis (percent of necrotic area)", "setting": "A431/CCKBR tumors", "value": "did not show significant difference"},
      {"measurement": "mitotic index", "setting": "A431/CCKBR tumors", "value": "did not cause significant change"},
      {"measurement": "Ki67 positive cells", "setting": "A431/CCKBR tumors", "value": "did not cause significant change"},
      {"measurement": "mouse weight", "setting": "A431/CCKBR xenograft [6]", "value": "no effect on tumor volume or mouse weight"},
      {"measurement": "tumor volume", "setting": "A431/CCKBR xenograft [5]", "value": "no effect on tumor volume or mouse weight"}
    ]},
    {"molecule": "CO[C@H]1C[C@@H]2CC[C@@H](C)[C@@](O)(O2)C(=O)C(=O)N2CCCC[C@H]2C(=O)O[C@H]([C@H](C)C[C@@H]2CC[C@@H](O)[C@H](OC)C2)CC(=O)[C@H](C)/C=C(\\C)[C@@H](O)[C@@H](OC)C(=O)[C@H](C)C[C@H](C)/C=C/C=C/C=C/1C", "note": "[rapamycin]", "values": [
      {"measurement": "changes in cell proliferation", "setting": "A431/CCKBR cells [1]", "value": "did not show significant changes in cell proliferation"}
    ]}
  ]
}
